Assay results as given in US11099176B2 (priority 2015, dated 2021).
Where two headings read alike, the source gives them in different places.

What was measured:
[1] = target: Marinobacter sp. msLacBP6 variant V192C, SEQ ID NO: 40, Acrylodan conjugate; assay: Fluorescence titration of conjugate; format: binding; details: read-out: trueKd (lactate); monochromatic, 500 nm
[2] = target: T1, Marinobacter adhaerens maLacBP8 variant F189C, SEQ ID NO: 43, Badan conjugate (Marinobacter adhaerens, UniProt E4PNW2, C105A/C90A/F252C); assay: Fluorescence titration of conjugate; format: binding
T1 construct: Badan on Cys189
T1 sequence (E4PNW2 entry or part of it C90A/C105A/F252C): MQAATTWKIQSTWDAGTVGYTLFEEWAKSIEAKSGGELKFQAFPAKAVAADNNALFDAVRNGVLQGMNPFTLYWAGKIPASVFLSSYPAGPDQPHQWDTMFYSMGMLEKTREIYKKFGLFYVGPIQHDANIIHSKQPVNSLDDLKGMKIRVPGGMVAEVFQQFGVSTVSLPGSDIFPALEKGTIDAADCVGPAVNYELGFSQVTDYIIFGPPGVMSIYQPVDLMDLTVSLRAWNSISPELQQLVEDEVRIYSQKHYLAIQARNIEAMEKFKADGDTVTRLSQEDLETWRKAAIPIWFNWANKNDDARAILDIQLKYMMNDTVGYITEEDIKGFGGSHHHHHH

[3] = target: Marinobacter sp. msLacBP6 variant 187C, P150S, SEQ ID NO: 55, Acrylodan conjugate; assay: Fluorescence titration of conjugate (affinity tuning); format: binding; details: read-out: trueKd (lactate); monochromatic, 463 nm
[4] = target: Marinobacter sp. msLacBP6 variant 187C, F68L, SEQ ID NO: 49, Badan conjugate; assay: as above; format: binding; details: λ1 463, λ2 535 nm
[5] = target: Marinobacter sp. msLacBP6 variant 187C, D220E, SEQ ID NO: 56, Acrylodan conjugate; assay: as above; format: binding; details: λ1 483, λ2 510 nm
[6] = target: T2, Polymorphum gilvum pgLacBP10, YP_004304976.1, SEQ ID NO: 10 (expressed form SEQ ID NO: 24) (Polymorphum gilvum, UniProt F2IY60); assay: Lactate binding by thermal stability shift; parameters: key to appKd (lactate) / trueKd (lactate): nb: no binding
T2 sequence (F2IY60 with tags, fused parts or gaps): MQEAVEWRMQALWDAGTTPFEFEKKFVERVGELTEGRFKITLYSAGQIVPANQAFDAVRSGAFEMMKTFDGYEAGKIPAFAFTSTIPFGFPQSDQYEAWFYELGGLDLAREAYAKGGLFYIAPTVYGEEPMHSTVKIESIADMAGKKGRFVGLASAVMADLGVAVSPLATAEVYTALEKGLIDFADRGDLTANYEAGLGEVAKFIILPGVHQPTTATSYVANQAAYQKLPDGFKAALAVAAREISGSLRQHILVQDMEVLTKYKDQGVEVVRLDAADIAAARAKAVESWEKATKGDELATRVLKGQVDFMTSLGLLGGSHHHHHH
Source text: These experiments comprise four successive steps: • 1. Synthetic gene construction. The amino acid sequence of the homology leads are back translated into DNA sequences. These are optimized for directing heterologous cytoplasmic expression of the protein homologues in E. coli, using either the OrfOpt or OrfMorph programs. These programs predict mRNA sequences that direct high-level protein expression in E. coli. The predicted gene sequences are assembled de novo from synthetic oligonucleotides. • 2. Heterologous protein expression of the homologues in E. coli. Plasmids carrying the synthetic expression constructs (see above) were transformed into KRX competent cells (Promega). Protein production was induced in bacterial cultures of these cultures. • 3. Purification of successfully expressed protein using immobilized metal affinity chromatography. • 4.
The thermal stability of purified LacBP candidate proteins was determined by measuring the temperature-dependence of the fluorescence signal of an extrinsically added dye, SYPRO, using a Roche LightCycler (Layton and Hellinga, 2010, Biochemistry, 49, 10831-41). The total fluorescence intensity, S, is given by S=βFfF+βUfU 11 where fF and fU are the fractions of protein in the folded and unfolded states, respectively, and βF and βUthe fluorescence baselines of these two states. To get the fractions of the two states, we have
To obtain the temperature dependence of the binding reaction, the Kd values of all the individually determined isotherms were fit the Gibbs-Hemholtz equation (Layton and Hellinga, 2010, Biochemistry, 49, 10831-41): […]

[7] = target: Marinobacter sp. msLacBP6 variant V188C, SEQ ID NO: 39, Badan conjugate; assay: Fluorescence titration of conjugate; format: binding; details: read-out: trueKd (lactate); monochromatic, 513 nm
[8] = target: T3, Flexistipes sinusarabici fsLacBP13 variant W188C, SEQ ID NO: 47, Badan conjugate (Flexistipes sinusarabici, UniProt F8E724, W211C); assay: Fluorescence titration of conjugate; format: binding
T3 construct: Badan on Cys188
T3 sequence (F8E724 entry or part of it W211C): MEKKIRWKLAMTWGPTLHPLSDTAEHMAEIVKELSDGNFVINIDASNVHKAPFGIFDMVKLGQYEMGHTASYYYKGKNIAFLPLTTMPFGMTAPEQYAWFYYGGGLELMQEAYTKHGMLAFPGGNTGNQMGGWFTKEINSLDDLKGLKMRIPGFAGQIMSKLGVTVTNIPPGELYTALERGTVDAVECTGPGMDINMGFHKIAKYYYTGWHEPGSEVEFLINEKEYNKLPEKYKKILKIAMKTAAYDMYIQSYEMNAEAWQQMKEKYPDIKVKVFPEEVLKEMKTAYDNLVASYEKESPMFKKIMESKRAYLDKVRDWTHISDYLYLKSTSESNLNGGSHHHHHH

[9] = test system: Marinobacter sp. msLacBP6 187C mutants (variants of Table 7); assay: Affinity summary of msLacBP6 187C affinity-tuning mutants; format: binding
Source text: In the PCS we mutated F68 (F98 in ttLacBP1) and D220 (D250 in ttLacBP1). […] It could therefore be considered part of a secondary complementary surface layer (SCS). In the interface we mutated L70 (L100 in ttLacBP1), which is located at the periphery of the lactate-binding site, and forms a contact from the N- to the C-terminal domain across the inter-domain interface.
Both PCS and SCS mutations perturbed the spectral shapes of the lactate-mediated responses. […] These affinity-tuned sensors therefore provide a suitable set for clinical chemistry applications.

[10] = target: Marinobacter sp. msLacBP6 variant 187C, L70I, SEQ ID NO: 52, Badan conjugate; assay: Fluorescence titration of conjugate (affinity tuning); format: binding; details: λ1 460, λ2 537 nm
[11] = Roche LightCycler, SYPRO Orange

Compound: C[C@H](O)C(=O)O [lactate]
- Kd [1]: 20 µM
- Kd [2]: 600 µM
- Kd [3]: 24000 µM
- Kd ([4]; read-out: appKd (lactate)): 400 µM
- Kd ([4]; read-out: trueKd (lactate)): 400 µM
- Kd ([5]; read-out: appKd (lactate)): 5100 µM
- Kd ([5]; read-out: trueKd (lactate)): 4000 µM
- appKd (lactate) [6, 11]: nb^f
- trueKd (lactate) [6, 11]: nb^f
- Lactate Binding ([6]; thermostability vs ligand concentration, fluorescence response of labeled conjugate): weak^f,g
- Kd [7]: 400 µM
- Kd [8]: > 100000 µM
- Kd ([8]; read-out: trueKd (lactate), λ1 483, λ2 466 nm): > 100000 µM
- effect of F68 mutations on lactate affinity ([9]; F68 mutations in 187C background): did not greatly affect lactate affinity
- Kd ([9]; read-out: lactate affinities (range over variants), msLacBP6 Acrylodan and Badan conjugate variants): 200 to 24000 µM
- Kd ([10]; read-out: appKd (lactate)): 300 µM
- Kd ([10]; read-out: trueKd (lactate)): 200 µM
